The test system of experiment [1] is collagen induced arthritis. The experiment in a line: Treatment effect on collagen induced arthritis in mice, histone H1 (Example 4). It counts as in vivo, DBA/1J female mice. Also noted: key to arthritis index: sum of 0–3 per-foot scores over 4 feet, max 12. Here is the method:
(§1) Five-week old DBA/1J female mice were imported from Charles River Japan and allowed to adapt in an animal room for two weeks before using them in the experiments at the age of 7 weeks (20-25 g).
(§2) Isolated and quantified type II collagen of chicken (Sigma Chemical Co., St. Louis, Mo., U.S.A.) was solubilized in 0.1 N acetic acid at a concentration of 2 mg/ml. The solution was mixed with an equal amount of a complete Freund's adjuvant at 4° C. to form a suspension. One hundred microliters of this mixture was injected […] around the origin of the tail vein and further inoculated at 3 and 6 weeks after the first injection (D. E. Trentham et. al., Autoimmunity to Type II collagen: An Experimental Model of Arthritis, J. Exp. Med. 146; 857-868 (1977)). Arthritis was induced from the 4th week after the first injection.
(§3) Clinical incidence of arthritis % (C.I.A) and arthritis index were examined. C.I.A. was expressed as the percentage of mice that have arthritic symptoms among the total mice. The degree of inflammation expressed as the arthritis index was categorized from 0 to 3 by 2 researchers every week as below. Pictures of the feet of some mice were taken 6 weeks after the collagen administration.
(§4) 1: One or two toes were swollen with suffusion or had minimal swelling
(§5) 2: Definite suffusion or local swelling in many toes
(§6) 3: Observation of severe edema and swelling up to the knee and restricted use of the feet.
(§7) The arthritis index was calculated for 4 feet (2 hind feet and 2 fore feet) giving the maximum value of 12. An index of 6-8 was considered severe since collagen induced arthritis invades in general mainly the hind feet (Korea J. Immunol. 18, 437, 1996; J. Immunol. 151, 6546,1993).
As a test group to examine the treatment effect, 1 mg/kg body weight of histone H1 was administered into 10 mice via intraperitoneal injection 2 times every week from the 6th week (after arthritis induction) up to the 10th week. Histone H1 was diluted at a concentration of 5 mg/ml in PBS. As a comparison group, 1 mg/kg body weight of dexamethasone, a currently available rheumatoid arthritis drug, was administered into 10 mice via an intraperitoneal injection 2 times every week from the 6th week (after arthritis induction) up to the 10th week. Identical control group was used as in EXAMPLE 1.

Experiment [2] relates to collagen induced arthritis. The experiment in a line: Preventive effect against collagen induced arthritis in mice (Example 3). The class given is in vivo, DBA/1J female mice. To be noted: preventive regimen. Here is the method: as §1, §2, §3, §4, §5, §6, §7
As a test group to examine the preventive effect, 1 mg/kg body weight of histone H1 was administered into 10 mice via intraperitoneal injection 2 times every week from the third week (before arthritis induction) up to 10th week after the first injection. Histone H1 was diluted at a concentration of 5 mg/ml in PBS. As a comparison group, 1 mg/kg body weight of dexamethasone, a currently available rheumatoid arthritis drug, was administered into 10 mice via intraperitoneal injection 2 times every week from the third week (before arthritis induction) up to 10th week after the first injection. As a control group, 300 μl of PBS was administered into 20 mice 2 times every week from the third week up to 10th week after the first collagen injection.

The subject of experiment [3] is collagen induced arthritis. The experiment is described as follows: Treatment effect on collagen induced arthritis in mice, histone H2A and its active fragment (Example 7). The class given is in vivo. Here is the method: as §1, §2, §3, §4, §5, §6, §7
As a test group to examine the treatment effect, 5 mice for histone H2A and 7mice for histone H2A active fragment were used. 1 mg/kg body weight of histone H2A or histone H2A active fragment was administered into the mice via intraperitoneal injection 2 times every week from the 6th week (after arthritis induction) up to the 10th week. Histone H2A or histone H2A active fragment was diluted at a concentration of 5 mg/ml in PBS. As a comparison group, 1 mg/kg body weight of dexamethasone, a currently available rheumatoid arthritis drug, was administered into 7 mice via an intraperitoneal injection 2 times every week from the 6th week (after arthritis induction) up to the 10th week. As a control group, […] of PBS was administered into 7 mice every week from the third week up to 10th week after the first collagen injection.

Experiment [4] relates to collagen induced arthritis. The experiment in a line: Pathological observation of leg joints by H-E staining. The class given is in vivo, mice. The conditions noted are these: treatment regimen; 10 weeks after antigen inoculation. From the text:
Mice were sacrificed by blood evacuation from the heart. The legs were cut immediately after the sacrifice and fixed in formalin. After the decalcification, legs were stained by hematoxylin-Eosin.

Experiment [5] deals with anti-collagen antibody (Type II collagen). The experiment in a line: Serum anti-collagen antibody level by ELISA. The class given is in vivo, mice. The conditions noted are these: serum at 10th week. Here is the method: At the 10th week the serum was isolated from the blood obtained through a heart puncture. The serum was kept at −80° C. and thawed immediately before the experiment to measure the anti-collagen antibody level by performing an ELISA (D. E. Tretham & R. A. Dynesius-Trentham, J. Immunol. 130; 2689-2692 (1983)). Type II collagen (25 μg/ml) in 0.1 M PBS was placed in each well of a 96-well polystyrene microplate (Nunc, Denmark) and was incubated at 4° C. for 8 hours. After the incubation, the wells were washed several times with a PBS-0.05% Tween 20 solution. To prevent non-specific immune reactions, PBS-0.5% ovalbumin was added in each well and incubated for an hour at room temperature and subsequently washed again with the PBS-0.05% Tween 20 solution. The serum, diluted 500 times with a buffer solution was added in each well and reacted for 2 hours at room temperature and further washed with the PBS-0.05% Tween 20 solution. After reacting each well with alkaline phosphatase conjugated goat anti-mouse IgA and IgM for 2 hours and adding 1 mg/ml of p-nitrophenyl phosphate, the absorbance at 450 nm was measured. The anti-collagen antibody level was measured twice for each sample and averaged.
The anti-collagen antibody level was measured to estimate the immune reaction as in EXAMPLE 3. […]
(In an ELISA, binding on a coated surface is turned into a signal by an enzyme label.)

[6] abbreviates: treatment regimen from 6th week, 7th week.
[7] abbreviates: treatment regimen from 6th week, 8th week.
Setting [8] is: treatment regimen from 6th week, 10th week.
Where [9] appears, read: test group at 5th week, before administration (baseline).

For the compound `C[C@@H]1C[C@H]2[C@@H]3CCC4=CC(=O)C=C[C@]4(C)[C@@]3(F)[C@@H](O)C[C@]2(C)[C@@]1(O)C(=O)CO` [dexamethasone, reference compound], the “C.I.A. (clinical incidence of arthritis)” value was 22.2% in experiment [1] (setting [6]); 33.3% in experiment [1] (setting [7]); 22.2% in experiment [1] (treatment regimen from 6th week, 9th week). The arthritis index in experiment [1] (setting [6]) was 2.67; in experiment [1] (setting [7]), 1.67; in experiment [1] (setting [8]) it was 3.00; in experiment [2] (5 weeks) it was 2.00; in experiment [2] (6 weeks), 1.50; in experiment [3] (1 mg/kg i.p. from 6th week, 8th week), 4.57. Further, the arthritis index in experiment [3] (1 mg/kg i.p. from 6th week, 9th week) is given as 1.86; in experiment [3] (1 mg/kg i.p. from 6th week, 10th week), 1.86.
In the case of Histone H1, in experiment [4], the “formation of pannus, erosion of cartilage or manifestation of inflammatory cells (H-E staining)” value is listed as “not observed”. Further, the “edema of fore feet (pictures)” value in experiment [1] (6th week after administration of the collagen) is reported as “improvement of edema was observed”. Further, the arthritis index came to 3.33±0.58 in experiment [1] (setting [9]); 2.67±0.58 in experiment [1] (treatment regimen from 6th week, 6th week); 1.00 in experiment [1] (setting [6]); 2 in experiment [1] (setting [7]); 1.00 in experiment [1] (setting [8]); 2.25±1.26 in experiment [2] (mice that had arthritis, 10th week). In addition, the “C.I.A. (clinical incidence of arthritis)” value is reported as 12.5% in experiment [1] (setting [6]); 14.3% in experiment [1] (setting [7]); 14.3% in experiment [1] (setting [8]); 37.5% in experiment [1] (treatment regimen, 1 mg/kg i.p. 2 times every week from 6th week, 6th week); 60% in experiment [2] (1 mg/kg i.p., 7th week); 60% in experiment [2] (1 mg/kg i.p., 8th week). Also, the “C.I.A. (clinical incidence of arthritis)” value in experiment [2] (1 mg/kg i.p., 10th week) worked out at 80%. Further, the “fraction of the induced arthritis completely cured” value in experiment [1] (treatment regimen from 6th week, after the 7th week) was “⅔”. Besides, the “anti-collagen antibody level (absorbance at 450 nm)” value in experiment [5] (preventive regimen, diluted 500 times) was 0.588±.214; in experiment [5] (treatment regimen (from 6th week)), 0.540±170. Also, the “week at which arthritis was first observed after the inoculation” value in experiment [2] (1 mg/kg i.p.) is 7 week. Further, the arthritis induction result in experiment [2] (1 mg/kg i.p. 2 times every week from third week, up to the 6th week) is given as “complete prevention of arthritis induction”. For the same compound, in experiment [2] (7th week), the “arthritis index relative to the control group” value is reported as 60%.
Regarding Histone H2A, the arthritis index in experiment [3] (1 mg/kg i.p. 2 times every week from 6th week, 7th week) is reported as 4.80±0.45; in experiment [3] (1 mg/kg i.p. from 6th week, after the 9th week), 2.80; in experiment [3] (setting [9]) it was 3.60±0.55.

The values are drawn from patent publication US20030007964A1, “Method for treating rheumatoid arthritis with composition containing histone” (SAMYANG GENEX CORPORATION, priority 1998, published 2003).
